These results are taken from patent publication US20060183902A1, “Dihydroindolyl methanones as alpha 1a/1d adrenoreceptor modulators for the treatment of benign prostatic hypertrophy and lower urinary tract symptoms” (priority 2005, published 2006).

The target in one test is T1, α1a-AR (Homo sapiens, UniProt P35348).
T1 construct: expressed in transfected cells; host or cells: COS-7
T1 sequence (P35348 1-466): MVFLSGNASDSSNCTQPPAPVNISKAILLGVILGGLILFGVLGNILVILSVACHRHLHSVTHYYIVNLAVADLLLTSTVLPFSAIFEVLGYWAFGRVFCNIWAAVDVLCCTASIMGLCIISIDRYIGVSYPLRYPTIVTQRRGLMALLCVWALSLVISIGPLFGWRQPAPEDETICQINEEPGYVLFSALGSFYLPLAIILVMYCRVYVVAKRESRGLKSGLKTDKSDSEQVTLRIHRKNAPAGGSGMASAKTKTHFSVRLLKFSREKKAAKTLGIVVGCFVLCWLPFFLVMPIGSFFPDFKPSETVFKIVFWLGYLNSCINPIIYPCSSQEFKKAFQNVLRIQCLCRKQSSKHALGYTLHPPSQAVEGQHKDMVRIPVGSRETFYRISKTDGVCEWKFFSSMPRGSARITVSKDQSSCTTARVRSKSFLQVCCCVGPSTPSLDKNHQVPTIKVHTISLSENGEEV
As to the kind of experiment: α1-Adrenergic receptor radio-ligand (125I-HEAT) binding assay, α1a subtype. The following applies: COS-7 cell membranes transfected with α1a-AR, 125I-HEAT 50 pM; read-out: Receptor Binding, Ki α1a-AR. As for the experimental part:
(§1) Membranes were prepared from COS-7 cells (African Green monkey kidney SV40-transformed cells) that had been transfected with one of the three α1-AR subtypes by the following method:
(§2) COS cells from ten 100 mm tissue culture plates were scraped into a 5 mL volume of TE (a mixture of 50 mM tris(hydroxymethyl)aminomethane hydrochloride (Tris-HCl) and 5 mM ethylenediaminetetraacetic acid (EDTA) at pH 7.4). The cell suspension was disrupted with a Brinkman Polytron (at a setting of 8) for 10 sec. The disrupted cells were centrifuged at 1000×g for 10 min at 4° C. Supernatants were centrifuged at 34,500×g for 20 min at 4° C. The membrane pellets were suspended in a 2 mL volume of TNE (a mixture of 50 mM Tris-HCl, 5 mM EDTA and 150 mM NaCl at pH7.4). An aliquot of the membrane suspension was stored at −70° C. until use. The protein concentration was determined using a BioRad “DC” protein assay kit following membrane solubilization with Triton X-100.
(§3) Triplicate determinations of radio-ligand binding in the presence of increasing concentrations of testing compound were made. The reagents were added to 96-well polypropylene plate wells. Each assay well contained 140 μL TNE, 25 μL ^125I-2-(β-4-hydroxyplenyl)ethylaminomethyltetralone (^125I-HEAT) (specific activity 2200 Ci/mmol, Dupont-New England Nuclear, 50 pM final), 10 μL testing compound dissolved in dimethyl sulfoxide (DMSO) (1 pM to 10 μM in half-log increments, final), and 25 μL appropriate α1-AR membrane subtype suspension in TNE (0.5 ng/μL for the α1a and α1b subtypes and 13 ng/μL for the α1d subtype). The plate was incubated at rt for 1 hr. The contents of the wells were filtered through a glass filter (type C) (GF/C) membrane Unifilter plate (Packard Instruments) using the Packard Filtermate cell harvester. The filter plates were dried in a vacuum oven for 30 min at 40° C. 25 μL Microscint 20 liquid scintillation fluid (Packard Instuments) was added to each well. The radioactive content was analyzed in the TopCount microplate scintillation counter (Packard Instruments).
(§4) The Ki values (in nM) shown in Table 1 were determined using GraphPad Prism software.

The target of a further test is T2, α1d-AR (Homo sapiens, UniProt P25100).
T2 construct: expressed in transfected cells; host or cells: COS-7
T2 sequence (P25100 1-572): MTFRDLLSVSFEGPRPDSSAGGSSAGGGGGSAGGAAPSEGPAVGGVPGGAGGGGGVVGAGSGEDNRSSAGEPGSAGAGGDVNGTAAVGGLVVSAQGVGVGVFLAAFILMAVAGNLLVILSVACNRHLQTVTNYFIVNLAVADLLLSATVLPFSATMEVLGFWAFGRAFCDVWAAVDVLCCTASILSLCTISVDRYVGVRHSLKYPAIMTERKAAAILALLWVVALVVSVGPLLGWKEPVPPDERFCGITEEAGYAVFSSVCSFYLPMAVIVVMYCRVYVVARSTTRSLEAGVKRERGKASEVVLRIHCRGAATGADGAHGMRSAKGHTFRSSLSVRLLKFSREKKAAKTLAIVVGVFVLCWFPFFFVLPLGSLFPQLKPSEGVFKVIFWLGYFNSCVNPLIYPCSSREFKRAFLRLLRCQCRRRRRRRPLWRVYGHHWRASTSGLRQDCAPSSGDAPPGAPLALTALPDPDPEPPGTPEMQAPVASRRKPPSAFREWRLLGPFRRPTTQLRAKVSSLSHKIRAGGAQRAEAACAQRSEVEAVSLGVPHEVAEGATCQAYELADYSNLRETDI
Put plainly: α1-Adrenergic receptor radio-ligand (125I-HEAT) binding assay, α1d subtype. The following applies: COS-7 cell membranes transfected with α1d-AR, 125I-HEAT 50 pM; read-out: Receptor Binding, Ki α1d-AR. As for the experimental part:
as §1, §2, §3, §4

The target in a further test is T3, α1b-AR (Homo sapiens, UniProt P35368).
T3 construct: expressed in transfected cells; host or cells: COS-7
T3 sequence (P35368 1-520): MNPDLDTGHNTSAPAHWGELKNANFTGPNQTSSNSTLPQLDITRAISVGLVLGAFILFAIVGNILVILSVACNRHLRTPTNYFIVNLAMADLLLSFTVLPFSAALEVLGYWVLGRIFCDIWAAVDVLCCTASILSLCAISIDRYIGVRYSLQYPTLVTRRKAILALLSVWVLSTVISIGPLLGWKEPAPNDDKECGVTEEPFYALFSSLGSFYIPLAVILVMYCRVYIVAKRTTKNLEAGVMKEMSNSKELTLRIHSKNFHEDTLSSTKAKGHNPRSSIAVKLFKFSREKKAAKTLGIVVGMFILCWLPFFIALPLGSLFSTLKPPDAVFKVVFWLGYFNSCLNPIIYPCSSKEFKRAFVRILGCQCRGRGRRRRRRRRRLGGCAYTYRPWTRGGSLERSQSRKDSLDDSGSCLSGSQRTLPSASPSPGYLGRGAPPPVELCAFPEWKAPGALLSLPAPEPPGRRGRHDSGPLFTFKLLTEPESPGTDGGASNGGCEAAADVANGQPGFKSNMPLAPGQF
As to the kind of experiment: α1-Adrenergic receptor radio-ligand (125I-HEAT) binding assay, α1b subtype. To be noted: COS-7 cell membranes transfected with α1b-AR, 125I-HEAT 50 pM; read-out: Receptor Binding, Ki α1b-AR. How it is done:
as §1, §2, §3, §4

Structures are written as SMILES. “And” between values parts separate entries of the source, which are not always exact repeats. Equal entries are not always repeated.

Regarding `CC(C)Oc1ccccc1N1CCN(Cc2cccc(C(=O)N3CCc4ccc(NC5CCc6ccccc6C5)cc43)c2)CC1` (stereo not drawn) [Cpd 16, {3-[4-(2-isopropoxy-phenyl)-piperazin-1-ylmethyl]-phenyl}-[6-(1,2,3,4-tetrahydro-naphthalen-2-ylamino)-2,3-dihydro-indol-1-yl]-methanone], the Ki (commonly the dissociation constant of the complex between target and ligand, obtained from inhibition or displacement) was determined as 0.0055 µM at α1a-AR, 0.0034 µM at α1d-AR and 0.282 µM at α1b-AR.

Consider `CC(C)Oc1ccccc1CN1CCN(Cc2cccc(C(=O)N3CCc4ccccc43)c2)CC1` [Cpd 56, (2,3-dihydro-indol-1-yl)-{3-[4-(2-isopropoxy-benzyl)-piperazin-1-ylmethyl]-phenyl}-methanone], for which the Ki was determined as 1.2 µM at α1a-AR, 1.91 µM on α1d-AR and 0.655 µM at α1b-AR.

Regarding `CC(C)COc1ccccc1N1CCN(Cc2cccc(C(=O)N3CCc4ccccc43)c2)CC1` [Cpd 65, (2,3-dihydro-indol-1-yl)-{3-[4-(2-isobutoxy-phenyl)-piperazin-1-ylmethyl]-phenyl}-methanone], the Ki at α1a-AR is 0.065 µM; on α1d-AR it was 0.042 µM; on α1b-AR, 0.909 µM.

With `Cc1ccc(S(=O)(=O)Nc2ccc3c(c2)N(C(=O)c2cccc(CN4CCN(c5ccccc5OC(C)C)CC4)c2)CC3)cc1` [Cpd 46, N-(1-{3-[4-(2-isopropoxy-phenyl)-piperazin-1-ylmethyl]-benzoyl}-2,3-dihydro-1H-indol-6-yl)-4-methyl-benzenesulfonamide], the Ki on α1a-AR amounted to 0.0059 µM; on α1d-AR, 0.0056 µM; at α1b-AR, 0.242 µM.

On to `CC(C)Oc1ccccc1N1CCN(Cc2cccc(C(=O)N3CCc4cc(NCc5ccc6c(c5)OCO6)ccc43)c2)CC1` [Cpd 27, {5-[(benzo[1,3]dioxol-5-ylmethyl)-amino]-2,3-dihydro-indol-1-yl}-{3-[4-(2-isopropoxy-phenyl)-piperazin-1-ylmethyl]-phenyl}-methanone], for which the inhibitory constant (Ki) at α1a-AR is 0.0165 µM; at α1d-AR, 0.011 µM; at α1b-AR, 0.379 µM.

Consider `COc1ccccc1C1CCN(Cc2ccc(C(=O)N3CCc4cc(N)ccc43)cc2)CC1` [Cpd 33, (5-amino-2,3-dihydro-indol-1-yl)-{4-[4-(2-methoxy-phenyl)-piperidin-1-ylmethyl]-phenyl}-methanone], for which the Ki was 0.0488 µM on α1a-AR, 0.0491 µM on α1d-AR and 0.658 µM on α1b-AR.

With `CC(=O)Nc1ccc(S(=O)(=O)Nc2ccc3c(c2)N(C(=O)c2cccc(CN4CCN(c5ccccc5OC(C)C)CC4)c2)CC3)cc1` [Cpd 15, N-[4-(1-{3-[4-(2-isopropoxy-phenyl)-piperazin-1-ylmethyl]-benzoyl}-2,3-dihydro-1H-indol-6-ylsulfamoyl)-phenyl]-acetamide], the Ki at α1a-AR was 0.001 µM; at α1d-AR, 0.7 µM; on α1b-AR, 0.091 µM.

Take `CC(C)Oc1ccccc1N1CCN(Cc2cccc(C(=O)N3CCc4ccc(NS(=O)(=O)c5c(F)cccc5F)cc43)c2)CC1` [Cpd 45, 2,6-difluoro-N-(1-{3-[4-(2-isopropoxy-phenyl)-piperazin-1-ylmethyl]-benzoyl}-2,3-dihydro-1H-indol-6-yl)-benzenesulfonamide]: the Ki on α1a-AR came to 0.0026 µM; on α1d-AR, 0.004 µM; on α1b-AR, 0.888 µM.

For `CC(C)Oc1ccccc1N1CCN(Cc2cccc(C(=O)N3CCc4ccc(NC(=S)Nc5ccccc5)cc43)c2)CC1` [Cpd 13, 1-(1-{3-[4-(2-isopropoxy-phenyl)-piperazin-1-ylmethyl]-benzoyl}-2,3-dihydro-1H-indol-6-yl)-3-phenyl-thiourea], the Ki on α1a-AR was 0.033 µM; at α1d-AR it was 0.004 µM and 0.00311 µM; at α1b-AR, 0.305 µM.

For `CC(C)Oc1ccccc1N1CCN(Cc2cccc(C(=O)N3CCc4ccc(NCc5ccc6c(c5)OCO6)cc43)c2)CC1` [Cpd 41, {6-[(benzo[1,3]dioxol-5-ylmethyl)-amino]-2,3-dihydro-indol-1-yl}-{3-[4-(2-isopropoxy-phenyl)-piperazin-1-ylmethyl]-phenyl}-methanone], the Ki at α1a-AR was 0.031 µM; at α1d-AR it was 0.0015 µM; at α1b-AR, 0.208 µM.
